Assay results: US10125097B2, “1- [1-(benzoyl)-pyrrolidine-2-carbonyl]-pyrrolidine-2-carbonitrile derivatives” (UNIVERSITAT DE BARCELONA, priority 2012, dated 2018)

What was measured:
[1] = Parallel artificial membrane permeability assay (PAMPA); format: in vitro ADME; details: 200 μM initial concentration, pH 7.4, 4 hours, room temperature
Description: Parallel artificial membrane permeability assay (PAMPA) described in Kansy M et al., J. Med. Chem. 1998; 41(7):1007-10 was used to determine the capacity of compounds to cross the Blood-Brain Barrier (BBB) by passive diffusion (Di L et al., Eur. J. Med. Chem. 2003; 38(3):223-32). The effective permeability (Pe) of the compounds was measured at an initial concentration of 200 μM. The buffer solution was prepared from a commercial concentrated one following the manufacturer's instructions. pH was adjusted to 7.4 using a 0.5 M NaOH solution. A stock solution of new compound was prepared in DMSO and diluted with buffer solution to a final 200 μM concentration (0.5% DMSO content). The PAMPA sandwich was separated and each donor well was filled with 200 μL of the compound solution. The acceptor plate was placed into the donor plate, ensuring that the underside of the membrane was in contact with buffer. 4 μL of the mixture of phospholipids (20 mg/mL) in dodecane was added to the filter of each well, and 200 μL of buffer solution was added to the each acceptor well. The plate was covered and incubated at room temperature in a saturated humidity atmosphere for 4 hours under orbital agitation at 100 rpm. After 4 hours, the contents of the acceptor and donor compartments were analyzed by HPLC: 150 μL of each well from the donor plate and 150 μL of each well from the acceptor plate were transferred to HPLC vials, injecting each sample into a reverse-phase C18 column (150 mm×4.6 mm×5 μm, 100 Å) (100 μL/injection from the acceptor wells, 10 μL/injection from the donor wells and for t0 references). Transport was also confirmed by MALDI-TOF spectrometry.
The phospholipid mixture used was a porcine polar brain lipid extract, provided by Avanti polar lipids, with the following composition: 12.6% phosphatidylcholine (PC), 33.1% phosphatidylethanolamine (PE), 18.5% phosphatidylserine (PS), 4.1% phosphatidylinositol (PI), 0.8% phosphatidic acid and 30.9% of other compounds.
The effective permeability (Pe) after 4 hours was calculated using equation 2 and the percentage of transport was calculated using equation 3:
[formula] wherein: t is time (h) CA(t) is the compound concentration in the acceptor well at time t and CD(to) is the compound concentration in the donor well at to.

MK-801-treated rodents [2] = experiment: Novel object recognition (NOR) task in MK-801 cognition impairment model; format: in vivo, rodents (mice or rats); details: 5 mg/Kg s.c.; MK-801 0.2 mg/kg i.p.; FIG. 1
Description: (§1) The new compounds were evaluated for their efficacy as cognition enhancers in a pharmacological model for cognitive impairment. The effects of the new compounds were evaluated in untreated and MK-801-treated rodents (mice or rats). MK-801 is a non-competitive antagonist of the N-Methyl-D-aspartate (NMDA) receptor which impairs animal performance in various learning and memory paradigms (Castellano C et al., Curr. Drug Targets 2001; 2:273-83; Riedel G et al., Behav. Brain Res. 2003; 140:1-47). MK-801 also produces various effects on rodent behavior, including deficits in sensory processing, hypermotility, stereotypy and ataxia. […]
The novel object recognition (NOR) task is based on the natural preference of rodents to explore novel objects (Ennaceur A et al., Behav. Brain Res. 1988; 31:47-59). […] The animals were then allowed to explore freely for 10 min, and the time spent exploring each object was recorded. […] An index of discrimination was calculated as follows: time spent exploring the new object minus time spent exploring the old object, divided by the total time exploring both objects, and multiplied by 100. […]

MK-801-treated rodents [3] = experiment: Passive avoidance task in MK-801 cognition impairment model; format: in vivo, rodents (mice or rats); details: 5 mg/Kg s.c. 35 min before shock session; MK-801 0.2 mg/kg i.p.; FIG. 2
Description: as §1
For the evaluation of the passive avoidance task, a two-compartment box with a light compartment and a dark compartment of the same dimensions was used. […] In the evaluation session, the time which the animal takes to enter the dark compartment (in seconds) was measured, as a sign of memory retention of the shock received in the dark compartment during the previous session. […] The corresponding evaluated compound was injected s.c. 35 min before the shock session, followed 15 minutes later by i.p. injection of MK-801, or PBS in the case of the control, in the same doses and volume as described for the object recognition test.

% T (percentage of transport) [1]: 29.92%
Papp at 4 h, 200 μM ([1]; PAMPA, read-out: Effective permeability Pe): 22.1 ×10⁻⁶ cm/s
Structure (SMILES): COc1cc(C(=O)N2CC(F)(F)C[C@H]2C(=O)N2CCC[C@H]2C#N)cc(OC)c1OCc1ccccc1 [Example 4, (S)-1-((2S)-1-(4-(benzyloxy)-3,5-dimethoxybenzoyl)-4,4-difluoropyrrolidine-2-carbonyl)pyrrolidine-2-carbonitrile]
Reversal of MK-801-induced memory impairment in the NOR test (MK-801-treated rodents [2]): able to reverse MK-801-induced memory impairment
Reversal of MK-801-induced memory impairment in the passive avoidance test (latency to enter dark compartment) (MK-801-treated rodents [3]): able to reverse MK-801-induced memory impairment
